Experimental data: PMC8911944, “Screening of Natural Products Inhibitors of SARS-CoV-2 Entry” (Molecules, 2022)
≈ marks a conversion by molar mass, not a printed value.

Test system: not listed separately
Test: Cytotoxicity assay, resazurin method
Assay type: cell-based
Conditions: human, HEK293T-ACE2 cells, HEK-293T ACE2 cells, unit inferred
Method: (§1) The maximum non-toxic concentration was assessed using the resazurin method. Briefly, HEK293T-ACE2 cells were cultured at 1 × 10^4 cells/well in a 96-well plate in the presence of different concentrations of the natural products. Vehicle (DMSO)-treated cells were used as a control and normalizer. Resazurin was added 48 h later, and after 3 h, cell viability was determined. Absorbance was measured on the MultiskanTM GO (ThermoScientific, Waltham, MA, USA) at 570 and 630 nm. The MNTC is the maximum concentration with a cytotoxicity lower than 10%.

Question: Which CC50 at 48 h does the source give for `C=C1CC/C=C(\C)CC[C@@H]2[C@@H]1CC2(C)C` [β-Caryophyllene] here?
Answer: 183 µg/mL (≈ 896 µM)

Test system: HEK293T-ACE2 cells
Test: Cytotoxicity assay, resazurin method
Assay type: cell-based
Conditions: maximum concentration with cytotoxicity lower than 10%
Method: as §1

Question: For `CC(=O)OC1C=CC(=O)OC1C1OC1C` (centres unmarked) [Asperline], which “MNTC (maximum non-toxic concentration)” value is on record?
Answer: 7.81 µg/mL

Question: Which “MNTC (maximum non-toxic concentration)” value does the source give for `CC(=O)C1COC(O)C1C` (centres unmarked) [Botryodiplodin] here?
Answer: 3 µg/mL

Question: With `CC1=C[C@H](O)[C@H]2C[C@@H]1C2(C)C` (relative stereo) [cis-Verbenol] as the molecule, how does the “MNTC (maximum non-toxic concentration)” value read?
Answer: 250 µg/mL

Question: Which “MNTC (maximum non-toxic concentration)” value does the source give for `C=C1CC[C@H]2O[C@]2(C)CC[C@@H]2[C@@H]1CC2(C)C` [Caryophyllene Oxide] here?
Answer: 31.25 µg/mL

Question: With `C=CC(C)(O)CCC=C(C)C` (centres unmarked) [Linalool] as the molecule, how does the “MNTC (maximum non-toxic concentration)” value read?
Answer: 125 µg/mL

Question: With `C[C@H]1CC[C@@H](C(C)(C)O)CC2=C1CC[C@@H]2C` [Guaiol] as the molecule, how does the “MNTC (maximum non-toxic concentration)” value read?
Answer: 33.3 µg/mL

Question: Which “MNTC (maximum non-toxic concentration)” value does the source give for `C=C1CC/C=C(\C)CC[C@@H]2[C@@H]1CC2(C)C` [β-Caryophyllene] here?
Answer: 125 µg/mL

Question: For Isoasperline, which “MNTC (maximum non-toxic concentration)” value is on record?
Answer: 7.19 µg/mL

Question: For S-Limonene, which “MNTC (maximum non-toxic concentration)” value is on record?
Answer: 31.25 µg/mL

Question: Which “MNTC (maximum non-toxic concentration)” value does the source give for `C/C=C/[C@H]1OC(=O)C=C[C@H]1OC(C)=O` [Acetylphomolactone] here?
Answer: 4.5 µg/mL

Question: With `CC(O)[C@@H]1NC(=O)c2cccn2C1=O` (some centres unmarked) [Macrophominol] as the molecule, how does the “MNTC (maximum non-toxic concentration)” value read?
Answer: 36 µg/mL

Question: Which “MNTC (maximum non-toxic concentration)” value does the source give for `C=C(C)[C@H]1CC=C(C)CC1` [R-Limonene] here?
Answer: 31.25 µg/mL

Test system: pseudotyped virus carrying the vesicular stomatitis virus glycoprotein G (VSV-G)
Test: not given
Assay type: cell-based
Conditions: not given

Question: Which “inhibitory activity against the entry of the VSV-G-pseudotyped virus” value does the source give for `C=C1CC/C=C(\C)CC[C@@H]2[C@@H]1CC2(C)C` [β-Caryophyllene] here?
Answer: low inhibitory activity
